According to patent US11214538B2, “Farnesoid X receptor agonists and uses thereof” (Metacrine, Inc., priority 2015, dated 2022):
pEC50: −log10 of the molar value.

Experiments:
hFXR [1] = biological target: T1, hFXR (Homo sapiens, UniProt Q96RI1); assay: In Vitro FXR Assay (PGL3), luciferase reporter in transfected CV-1 cells; type: cell-based; conditions: CV-1 cells transfected with hFXR, hRXR, PGL3-ECRE*6-luc; 18 hrs incubation; luminescence
T1 construct: expressed in transfected cells; host or cells: CV-1 cells
T1 sequence (Q96RI1 1-486): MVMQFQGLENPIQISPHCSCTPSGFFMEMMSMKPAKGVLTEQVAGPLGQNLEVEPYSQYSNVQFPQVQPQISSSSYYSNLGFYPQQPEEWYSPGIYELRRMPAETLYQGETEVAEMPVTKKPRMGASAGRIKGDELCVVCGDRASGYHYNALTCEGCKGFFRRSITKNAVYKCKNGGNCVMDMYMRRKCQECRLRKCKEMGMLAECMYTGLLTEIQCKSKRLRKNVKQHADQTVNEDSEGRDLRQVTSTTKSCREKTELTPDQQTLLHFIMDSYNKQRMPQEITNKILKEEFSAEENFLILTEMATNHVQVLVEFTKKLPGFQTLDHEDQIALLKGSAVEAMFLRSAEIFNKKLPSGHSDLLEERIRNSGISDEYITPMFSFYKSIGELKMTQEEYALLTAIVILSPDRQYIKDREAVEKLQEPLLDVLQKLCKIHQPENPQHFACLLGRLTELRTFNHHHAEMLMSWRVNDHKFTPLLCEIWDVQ
T1 sequence (P19793 1-462 partner): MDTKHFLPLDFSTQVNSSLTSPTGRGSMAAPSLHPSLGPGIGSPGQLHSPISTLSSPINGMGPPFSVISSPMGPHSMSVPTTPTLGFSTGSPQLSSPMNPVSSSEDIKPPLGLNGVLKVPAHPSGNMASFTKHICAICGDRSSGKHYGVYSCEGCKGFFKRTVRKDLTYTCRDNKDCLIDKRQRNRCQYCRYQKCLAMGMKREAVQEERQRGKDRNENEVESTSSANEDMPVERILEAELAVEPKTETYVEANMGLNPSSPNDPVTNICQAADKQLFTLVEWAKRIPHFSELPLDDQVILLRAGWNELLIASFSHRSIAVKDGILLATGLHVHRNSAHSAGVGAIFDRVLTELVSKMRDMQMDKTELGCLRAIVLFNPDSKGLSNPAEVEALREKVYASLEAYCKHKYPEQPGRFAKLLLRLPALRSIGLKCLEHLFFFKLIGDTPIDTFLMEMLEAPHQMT
Experimental: Example B-1: In Vitro FXR Assay (PGL3)
CV-1 cells were seeded at a density of 2,000,000 cells in a T175 flask with DMEM+10% charcoal double-stripped FBS and incubated at 37° C. in a 5% CO2 for 18 h (O/N).
After 18 h of incubation, the medium in the T175 flask was changed with fresh DMEM+10% charcoal super-stripped serum.
To prepare the transfection reaction mixture, the transfection reagent (X-tremeGENE HP from Roche, Cat #06 366 236 001) was added in to a 1.5 mL microcentrifuge tube labelled “A” at a ratio of 1:3 (DNA in g: transfection reagent in μL). OptiMEM medium (Life Technologies, Cat #31985-062) was added accordingly to provide a total volume of 1 mL. The transfection reaction mixture was then briefly vortexed and incubated at room temperature for 5 minutes.
In a separate 1.5 mL microcentrifuge tube labelled “B”, 100 μL OptiMEM and plasmids XPD90Gal pCMXhFXRfl, pCMXhRXRfl+PGL3-ECRE*6-luc+CMX-YFP in the ratio 2 g: 2 g:18 g:3 g were added. This microcentrifuge tube “B” was then briefly vortexed and incubated at room temperature for 5 minutes.
The total volume in tube labelled “A” was then transferred in to tube labelled “B.” The mixture was then briefly vortexed and the transfection:DNA complex was then incubated for about 15-20 minutes at room temperature.
Following incubation, the transfection reagent/DNA mixture complex was then added to cells in the T175 flask and the cells were incubated at […] (O/N) at 37° C. in 5% CO2.
In a 96 well plate, a half logarithmic serial dilution was prepared. OptiMEM was used as the diluent. Using any of one of the compounds described herein, a compound stock solution of 10 mM was prepared. An initial 1:100 dilution was made into the first well for a final concentration of 100 μM. The final concentrations in the 96-well plate was prepared by using a multichannel pipette to transfer 5 μL of the diluted compound to 384-well plate in quadruplicate.
Cells in T175 flask were trypsinized and cells were resuspending in 40 mL phenol red free DMEM+10% charcoal super-stripped FBS. Typically, one T175 flask was sufficient to seed two 384 well plates. CV-1 cells were seeded at 45 μL cell suspension/well using a multichannel pipet or a 384 multidrop dispenser. The cells were then incubated for 18 hrs, overnight.
After removing the plates from the incubator, the medium was flicked out of plate and 384 well plate was turned upside down onto paper towel. The remaining medium was gently tapped out. 15 μL lysis buffer was then added to each well using a multichannel pipet or a 384 well multi-drop dispenser. After incubation for 10 minutes at room temperature on shaker, 30 μL Luciferase buffer was added to each well. Luminescence counts were taken immediately using the Perkin Elmer Envision.
The ability of the compounds disclosed herein to […] FXR activity was quantified and the respective EC50 value was determined. Fex=fexaramine.

hFXR [2] = biological target: T1, hFXR; assay: In Vitro FXR Assay (TK), luciferase reporter in transfected CV-1 cells; type: cell-based; conditions: CV-1 cells transfected with hFXR, hRXR, TK-ECRE-luc; 18 hrs incubation; luminescence; compounds with a maximum efficacy of <25% of the Fexaramine control classified as '+'
Experimental: Example B-2: In Vitro FXR Assay (TK)
CV-1 cells were seeded at a density of 2,000,000 cells in a T175 flask with DMEM+10% charcoal double-stripped FBS and incubated at 37° C. in 5% CO2 for 18 h (O/N).
After 18 h of incubation, the medium in the T175 flask was changed with fresh DMEM+10% charcoal super-stripped serum. In a polypropylene tube, 2500 μL OptiMEM (Life Technologies, Cat #31985-062) was combined with expression plasmids for hFXR, hRXR, TK-ECRE-luc and pCMX-YFP. The tube was then briefly vortexed and incubated at room temperature for 5 minutes. Transfection reagent (X-tremeGENE HP from Roche, Cat #06 366 236 001) was added to the OptiMEM/plasmid mixture vortexed and incubated at room temperature for 20 minutes. Following incubation, the transfection reagent/DNA mixture complex was added to cells in the T175 flask and the cells were incubated at 37° C. in 5% CO2 for 18 h (O/N).
Compounds were serially diluted in DMSO and added to transfected CV-1 cells. The cells were then incubated for 18 hrs. The next day cells were lysed and examined for luminescence.

Row | Structure (SMILES) | Cmpd/Fex (ratio of the EC50 for the test compound relative to the EC50 of the Fexaramine control) (hFXR [1]) | pEC50 (hFXR [2])
1 | CN(C)c1ccc(-c2ccc(CN(C(=O)C3CCCCC3)c3cccc(/C=C/c4ncco4)c3)cc2)cc1 [Compound 14, (E)-N-((4′-(Dimethylamino)-[1,1′-biphenyl]-4-yl)methyl)-N-(3-(2-(oxazol-2-yl)vinyl)phenyl)cyclohexanecarboxamide] | +++ (‘+++’ means Cmpd/Fex <10) | ≥ 5.52
2 | O=C(C1CCCCC1)N(Cc1ccc(-c2ccc(F)cc2)cc1)c1cccc(-c2ccccc2)c1 [Compound 15, N-([1,1′-Biphenyl]-3-yl)-N-((4′-fluoro-[1,1′-biphenyl]-4-yl)methyl)cyclohexanecarboxamide] | + (‘+’ means Cmpd/Fex >100) | ≥ 5.52
3 | C/C=C/c1cccc(N(Cc2ccc(-c3ccc(N(C)C)cc3)cc2)C(=O)C2CCCCC2)c1 [Compound 16, (E)-N-((4′-(Dimethylamino)-[1,1′-biphenyl]-4-yl)methyl)-N-(3-(prop-1-en-1-yl)phenyl)cyclohexanecarboxamide] | ++ (‘++’ means Cmpd/Fex >10 & <100) | 5.00 to 5.52
4 | CN(C)c1ccc(-c2ccc(CN(C(=O)C3CCCCC3)c3cccc(-c4ccccc4)c3)cc2)cc1 [Compound 18, N-([1,1′-Biphenyl]-3-yl)-N-((4′-(dimethylamino)-[1,1′-biphenyl]-4-yl)methyl)cyclohexanecarboxamide] | + (‘+’ means Cmpd/Fex >100) | 5.00 to 5.52
